The results in this text go back to ChEMBL document CHEMBL2203073, “Synthesis and biological evaluation of 4,4-dimethyl lithocholic acid derivatives as novel inhibitors of protein tyrosine phosphatase 1B” (Bioorg Med Chem Lett, 2012).

Experiment [1] deals with T1, Tyrosine-protein phosphatase non-receptor type 1 (Homo sapiens, UniProt P18031).
T1 sequence (P18031 whole entry): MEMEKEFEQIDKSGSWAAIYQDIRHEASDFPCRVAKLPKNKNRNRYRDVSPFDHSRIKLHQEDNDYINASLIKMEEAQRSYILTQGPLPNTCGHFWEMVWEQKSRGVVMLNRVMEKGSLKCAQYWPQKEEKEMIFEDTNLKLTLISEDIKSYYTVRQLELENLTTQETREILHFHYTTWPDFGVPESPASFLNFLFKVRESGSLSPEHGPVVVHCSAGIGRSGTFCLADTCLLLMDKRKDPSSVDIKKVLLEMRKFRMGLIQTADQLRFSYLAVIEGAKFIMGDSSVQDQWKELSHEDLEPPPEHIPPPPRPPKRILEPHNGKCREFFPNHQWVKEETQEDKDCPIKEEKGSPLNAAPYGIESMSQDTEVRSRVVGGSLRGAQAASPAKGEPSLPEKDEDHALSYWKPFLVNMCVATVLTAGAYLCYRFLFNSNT
As to the kind of experiment: Inhibition of PTP1B by para-nitrophenyl phosphate release assay.

For experiment [2], the target named is T1, Tyrosine-protein phosphatase non-receptor type 1. In words: Competitive inhibition of PTP1B by para-nitrophenyl phosphate release assay.
Experiment [3] concerns the target Receptor-type tyrosine-protein phosphatase F (Homo sapiens) (UniProt P10586). As to the kind of experiment: Inhibition of LAR at 40 uM.
The nature of experiment [4]: Selectivity index, ratio of IC50 for TCPTP to PTP1B.
Experiment [5] has as its target T2, Tyrosine-protein phosphatase non-receptor type 11 (Homo sapiens) (UniProt Q06124).
T2 sequence (whole entry): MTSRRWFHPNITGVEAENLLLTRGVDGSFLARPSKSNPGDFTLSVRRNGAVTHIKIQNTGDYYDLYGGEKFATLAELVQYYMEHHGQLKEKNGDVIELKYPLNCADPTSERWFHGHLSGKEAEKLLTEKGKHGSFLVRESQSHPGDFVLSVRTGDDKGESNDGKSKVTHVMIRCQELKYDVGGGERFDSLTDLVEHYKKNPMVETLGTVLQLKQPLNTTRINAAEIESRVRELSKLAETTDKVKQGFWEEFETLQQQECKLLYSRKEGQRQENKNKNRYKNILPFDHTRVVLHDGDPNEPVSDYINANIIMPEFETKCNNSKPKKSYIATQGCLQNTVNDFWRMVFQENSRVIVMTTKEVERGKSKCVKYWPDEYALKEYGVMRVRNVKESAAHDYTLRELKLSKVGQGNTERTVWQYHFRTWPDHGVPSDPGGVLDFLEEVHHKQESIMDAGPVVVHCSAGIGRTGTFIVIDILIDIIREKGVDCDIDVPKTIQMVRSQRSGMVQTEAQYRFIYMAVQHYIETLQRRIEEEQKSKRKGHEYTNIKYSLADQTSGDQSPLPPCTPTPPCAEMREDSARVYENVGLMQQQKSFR
As to the kind of experiment: Inhibition of SHP2 at 40 uM.

Experiment [6] deals with T3, Tyrosine-protein phosphatase non-receptor type 2 (Homo sapiens, UniProt P17706).
T3 sequence (P17706 whole entry): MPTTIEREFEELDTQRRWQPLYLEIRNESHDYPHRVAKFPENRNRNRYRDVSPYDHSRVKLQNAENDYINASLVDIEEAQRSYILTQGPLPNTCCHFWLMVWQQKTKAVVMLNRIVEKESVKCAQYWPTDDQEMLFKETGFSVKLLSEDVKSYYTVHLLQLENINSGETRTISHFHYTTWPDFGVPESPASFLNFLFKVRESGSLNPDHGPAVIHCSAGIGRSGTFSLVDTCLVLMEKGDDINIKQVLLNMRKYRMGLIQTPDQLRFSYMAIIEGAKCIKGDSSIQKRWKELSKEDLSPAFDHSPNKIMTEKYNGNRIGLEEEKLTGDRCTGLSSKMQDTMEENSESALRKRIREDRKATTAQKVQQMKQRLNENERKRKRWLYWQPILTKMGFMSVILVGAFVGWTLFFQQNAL
As to the kind of experiment: Inhibition of TCPTP by para-nitrophenyl phosphate release assay.

For experiment [7], the target named is Tyrosine-protein phosphatase non-receptor type 6 (Homo sapiens) (UniProt P29350). As to the kind of experiment: Inhibition of SHP1 at 40 uM.
Chain of Tyrosine-protein phosphatase non-receptor type 6 (Homo sapiens) (P29350 whole entry): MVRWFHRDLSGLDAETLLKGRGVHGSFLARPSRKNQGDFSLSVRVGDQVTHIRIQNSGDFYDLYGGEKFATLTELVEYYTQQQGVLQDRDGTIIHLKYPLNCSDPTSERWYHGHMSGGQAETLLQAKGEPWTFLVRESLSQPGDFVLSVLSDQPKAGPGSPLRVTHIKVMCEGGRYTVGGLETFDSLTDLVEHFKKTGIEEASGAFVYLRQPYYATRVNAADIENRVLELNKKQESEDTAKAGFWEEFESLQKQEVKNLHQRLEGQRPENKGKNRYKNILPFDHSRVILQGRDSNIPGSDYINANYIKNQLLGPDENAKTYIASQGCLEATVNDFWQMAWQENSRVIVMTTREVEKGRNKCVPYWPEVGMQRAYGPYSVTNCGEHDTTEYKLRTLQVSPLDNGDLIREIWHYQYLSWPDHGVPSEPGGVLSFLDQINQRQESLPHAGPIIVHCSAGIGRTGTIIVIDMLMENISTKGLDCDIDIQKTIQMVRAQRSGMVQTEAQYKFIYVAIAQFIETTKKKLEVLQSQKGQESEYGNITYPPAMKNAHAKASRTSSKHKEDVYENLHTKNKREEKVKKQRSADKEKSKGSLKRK

Chain of Receptor-type tyrosine-protein phosphatase F (Homo sapiens) (P10586 whole entry): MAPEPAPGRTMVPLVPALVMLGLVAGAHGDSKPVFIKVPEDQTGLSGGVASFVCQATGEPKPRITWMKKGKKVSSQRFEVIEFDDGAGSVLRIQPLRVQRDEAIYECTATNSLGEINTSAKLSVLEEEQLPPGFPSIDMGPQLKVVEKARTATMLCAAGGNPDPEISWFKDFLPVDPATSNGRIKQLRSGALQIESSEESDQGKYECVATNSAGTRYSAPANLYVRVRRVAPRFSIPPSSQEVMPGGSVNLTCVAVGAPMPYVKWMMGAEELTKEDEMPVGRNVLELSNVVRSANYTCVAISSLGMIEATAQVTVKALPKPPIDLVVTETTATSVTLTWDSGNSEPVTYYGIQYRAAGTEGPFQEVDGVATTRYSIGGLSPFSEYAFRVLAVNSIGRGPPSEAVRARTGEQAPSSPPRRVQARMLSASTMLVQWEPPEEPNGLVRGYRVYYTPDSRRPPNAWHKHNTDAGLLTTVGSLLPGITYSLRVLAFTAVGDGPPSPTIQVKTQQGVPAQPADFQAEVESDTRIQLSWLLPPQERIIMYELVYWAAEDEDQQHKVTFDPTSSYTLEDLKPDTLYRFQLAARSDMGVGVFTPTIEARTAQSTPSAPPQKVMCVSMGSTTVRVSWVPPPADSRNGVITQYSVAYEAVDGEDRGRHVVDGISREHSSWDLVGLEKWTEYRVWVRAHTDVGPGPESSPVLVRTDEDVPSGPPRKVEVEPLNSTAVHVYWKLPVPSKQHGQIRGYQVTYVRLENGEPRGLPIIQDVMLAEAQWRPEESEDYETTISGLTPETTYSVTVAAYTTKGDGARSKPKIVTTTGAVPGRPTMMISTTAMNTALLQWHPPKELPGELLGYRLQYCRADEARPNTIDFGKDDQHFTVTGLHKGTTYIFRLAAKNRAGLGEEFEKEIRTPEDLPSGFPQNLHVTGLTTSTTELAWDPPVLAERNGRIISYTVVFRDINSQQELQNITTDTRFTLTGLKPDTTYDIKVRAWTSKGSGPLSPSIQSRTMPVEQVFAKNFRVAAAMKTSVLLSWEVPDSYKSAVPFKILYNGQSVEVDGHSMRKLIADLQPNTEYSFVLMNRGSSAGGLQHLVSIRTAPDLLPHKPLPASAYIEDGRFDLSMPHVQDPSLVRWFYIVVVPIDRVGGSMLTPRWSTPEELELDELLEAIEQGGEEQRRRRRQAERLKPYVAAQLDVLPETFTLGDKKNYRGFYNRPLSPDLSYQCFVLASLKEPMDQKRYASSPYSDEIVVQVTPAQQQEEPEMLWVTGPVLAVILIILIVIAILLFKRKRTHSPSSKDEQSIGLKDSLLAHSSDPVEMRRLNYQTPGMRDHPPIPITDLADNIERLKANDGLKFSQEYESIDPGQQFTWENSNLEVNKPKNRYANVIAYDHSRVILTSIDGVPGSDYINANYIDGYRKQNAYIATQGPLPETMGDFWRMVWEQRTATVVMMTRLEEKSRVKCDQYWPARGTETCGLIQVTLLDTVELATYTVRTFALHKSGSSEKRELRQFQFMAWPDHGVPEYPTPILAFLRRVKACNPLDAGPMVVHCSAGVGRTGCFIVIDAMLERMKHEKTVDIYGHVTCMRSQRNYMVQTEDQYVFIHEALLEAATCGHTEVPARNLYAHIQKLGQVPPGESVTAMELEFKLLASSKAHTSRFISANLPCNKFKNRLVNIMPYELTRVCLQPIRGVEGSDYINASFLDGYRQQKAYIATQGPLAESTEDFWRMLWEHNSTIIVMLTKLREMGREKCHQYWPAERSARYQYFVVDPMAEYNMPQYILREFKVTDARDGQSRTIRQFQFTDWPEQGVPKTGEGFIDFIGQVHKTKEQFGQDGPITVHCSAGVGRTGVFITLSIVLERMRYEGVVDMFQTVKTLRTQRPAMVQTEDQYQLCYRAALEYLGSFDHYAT

Turning to `C[C@H](CCC(=O)O)[C@H]1CC[C@H]2[C@@H]3CC=C4C(C)(C)c5c(cnn5-c5ccccc5)C[C@]4(C)[C@H]3CC[C@]12C`, the IC50 – broadly, the concentration that inhibits the measured activity by half – in experiment [1] worked out at 1.62 µM; in experiment [6], 22.8 µM. Besides, the Ki (usually the equilibrium dissociation constant of an inhibitor or competing ligand from its target) in experiment [2] was 0.84 µM. In addition, the figures for the inhibition in experiment [3], in experiment [5] and in experiment [7] were 26.9%, 9.36% and 0.97%, respectively. In addition, the Ratio IC50 in experiment [4] amounted to 14.1.

Consider `C[C@H](CCC(=O)O)[C@H]1CC[C@H]2[C@@H]3CC=C4C(C)(C)c5[nH]ncc5C[C@]4(C)[C@H]3CC[C@]12C`, for which the half-inhibitory concentration (IC50) in experiment [1] came out at 4.11 µM; in experiment [6], 19.2 µM. Also, the Ratio IC50 in experiment [4] is 4.7.

In the case of `C[C@H](CCC(=O)O)[C@H]1CC[C@H]2[C@@H]3CC[C@@H]4C[C@H](O)CC[C@]4(C)[C@H]3CC[C@]12C` [LITHOCHOLIC ACID], the half-maximal inhibitory concentration (IC50) in experiment [1] is 12.7 µM; in experiment [6], 20.4 µM. Moreover, the Ratio IC50 in experiment [4] was found to be 1.6.

For `C[C@H](CCC(=O)O)[C@H]1CC[C@H]2[C@@H]3CC=C4C(C)(C)c5nnsc5C[C@]4(C)[C@H]3CC[C@]12C`, the half-maximal inhibitory concentration (IC50) came to 39.4 µM in experiment [1] and 36.6 µM in experiment [6]. For the same molecule, the Ratio IC50 in experiment [4] amounted to 0.9.

Take `O=C(O)C(=O)c1ccc(OCc2ccc(COc3ccc(C(=O)C(=O)O)cc3)cc2)cc1`: in experiment [4], the Ratio IC50 came out at 1.6.

On to `C[C@H](CCC(=O)O)[C@H]1CC[C@H]2[C@@H]3CC=C4C(C)(C)c5nc(N)sc5C[C@]4(C)[C@H]3CC[C@]12C`, for which the IC50 in experiment [1] turned out to be 5.57 µM; in experiment [6], 11 µM. For the same molecule, the Ratio IC50 in experiment [4] was 2.

Regarding `CCOC(=O)CC[C@@H](C)[C@H]1CC[C@H]2[C@@H]3CC=C4C(C)(C)c5nc(N)ncc5C[C@]4(C)[C@H]3CC[C@]12C`, the IC50 in experiment [1] and in experiment [6] was > 40 µM throughout.

In the case of `C[C@H](CCC(=O)O)[C@H]1CC[C@H]2[C@@H]3CC=C4C(C)(C)c5ncncc5C[C@]4(C)[C@H]3CC[C@]12C`, the IC50 worked out at 11.6 µM in experiment [1] and 10.8 µM in experiment [6]. Further, the Ratio IC50 in experiment [4] amounted to 0.9.

Consider `Cc1ncc2c(n1)C(C)(C)C1=CC[C@H]3[C@@H]4CC[C@H]([C@H](C)CCC(=O)O)[C@@]4(C)CC[C@@H]3[C@@]1(C)C2`, for which the values for the IC50 in experiment [1] and in experiment [6] were 9.11 µM and 11.5 µM, respectively. In experiment [4], the Ratio IC50 was determined as 1.2.

In the case of `C[C@H](CCC(=O)O)[C@H]1CC[C@H]2[C@@H]3CC=C4C(C)(C)c5nc(N)ncc5C[C@]4(C)[C@H]3CC[C@]12C`, the half-maximal inhibitory concentration (IC50) in experiment [1] was found to be 3.61 µM; in experiment [6], 17.1 µM. Besides, in experiment [4], the Ratio IC50 is 5.

On to `C[C@H](CCC(=O)O)[C@H]1CC[C@H]2[C@@H]3CC=C4C(C)(C)c5nccnc5C[C@]4(C)[C@H]3CC[C@]12C`, for which the results for the IC50 in experiment [1] and in experiment [6] were 8.62 µM and 23.8 µM, respectively. In addition, in experiment [4], the Ratio IC50 was found to be 2.8.

Regarding `CCOC(=O)CC[C@@H](C)[C@H]1CC[C@H]2[C@@H]3CC=C4C(C)(C)c5[nH]ncc5C[C@]4(C)[C@H]3CC[C@]12C`, the values for the IC50 in experiment [1] and in experiment [6] were 19.2 µM and > 40 µM, respectively. Moreover, the Ratio IC50 in experiment [4] is > 2.1.

For the molecule `C[C@H](CCC(=O)O)[C@H]1CC[C@H]2[C@@H]3CC=C4C(C)(C)c5oncc5C[C@]4(C)[C@H]3CC[C@]12C`, the half-inhibitory concentration (IC50) in experiment [1] turned out to be 9.13 µM; in experiment [6], 46.6 µM. In addition, in experiment [4], the Ratio IC50 was determined as 5.1.

For `COC(=O)CC[C@@H](C)[C@H]1CC[C@H]2[C@@H]3CC=C4C(C)(C)c5nccnc5C[C@]4(C)[C@H]3CC[C@]12C`, the IC50 in experiment [1] was 28.2 µM; in experiment [6], > 40 µM. Besides, in experiment [4], the Ratio IC50 was > 1.4.

As for `COC(=O)CC[C@@H](C)[C@H]1CC[C@H]2[C@@H]3CC=C4C(C)(C)c5nc(N)sc5C[C@]4(C)[C@H]3CC[C@]12C`, the IC50 in experiment [1] is 9.04 µM; in experiment [6], > 40 µM. The Ratio IC50 in experiment [4] is > 4.4.

Turning to `C[C@H](CCC(=O)O)[C@H]1CC[C@H]2[C@@H]3CC=C4C(C)(C)C(=O)CC[C@]4(C)[C@H]3CC[C@]12C`, the concentration for half-maximal inhibition (IC50) in experiment [1] is 13.2 µM; in experiment [6] it was > 50 µM.

For the molecule `COC(=O)CC[C@@H](C)[C@H]1CC[C@H]2[C@@H]3CC=C4C(C)(C)C(=O)CC[C@]4(C)[C@H]3CC[C@]12C`, the IC50 in experiment [1] is 13.2 µM; in experiment [6] it was > 50 µM. Moreover, in experiment [4], the Ratio IC50 was > 3.8.

As for `C[C@H](CCC(=O)O)[C@H]1CC[C@H]2[C@@H]3CC=C4C(C)(C)c5[nH]nc(C(=O)O)c5C[C@]4(C)[C@H]3CC[C@]12C`, the IC50 in experiment [1] stood at 9.27 µM; in experiment [6] it was 9 µM. Further, the Ratio IC50 in experiment [4] turned out to be 0.9.
